Results reported in the NIST ThermoML archive (doi:10.1016/j.jct.2016.01.012).

Legend:
[1] = xn = mol fraction of the nth substance listed; details: 100 kPa, Liquid; for viscosity: Falling or rolling sphere viscometry; for mass density: Vibrating tube method; for electrical conductivity: Direct current cell with electrodes
[2] = refractive index (Na D-line) (dimensionless); xn = mol fraction of the nth substance listed; details: 298.15 K, 100 kPa, Liquid, Standard Abbe refractometry

CN(C)C(=[NH2+])N(C)C.c1c[n-]cn1 [1,1,3,3-tetramethylguanidinium imidazol-1-ide] + O
[1]
Details	electrical conductivity [S/m]	mass density [kg/m3]	viscosity [mPa·s]
293.15 K, x1 = 0.0511	–	1023.04	3.157
293.15 K, x1 = 0.0991	–	1024.53	5.561
293.15 K, x1 = 0.207	–	1025.54	10.23
293.15 K, x1 = 0.3005	–	1019.92	14.29
293.15 K, x1 = 0.3834	–	1015.77	15.79
293.15 K, x1 = 0.4978	–	1010.24	16.03
293.15 K, x1 = 0.6356	–	1005.44	14.5
293.15 K, x1 = 0.8019	–	1001.45	12.12
293.15 K, x1 = 0.8984	–	999.17	10.19
293.15 K, x1 = 1	–	997.25	8.952
298.15 K, x1 = 0.002	1.524	–	–
298.15 K, x1 = 0.003	1.88	–	–
298.15 K, x1 = 0.0039	2.47	–	–
298.15 K, x1 = 0.005	2.88	–	–
298.15 K, x1 = 0.006	3.19	–	–
298.15 K, x1 = 0.008	3.36	–	–
298.15 K, x1 = 0.01	3.67	–	–
298.15 K, x1 = 0.0149	3.96	–	–
298.15 K, x1 = 0.0199	3.93	–	–
298.15 K, x1 = 0.0299	3.72	–	–
298.15 K, x1 = 0.0398	3.22	–	–
298.15 K, x1 = 0.0499	2.7	–	–
298.15 K, x1 = 0.0511	–	1019.97	2.519
298.15 K, x1 = 0.0599	2.31	–	–
298.15 K, x1 = 0.0699	1.97	–	–
298.15 K, x1 = 0.0799	1.711	–	–
298.15 K, x1 = 0.0893	1.517	–	–
298.15 K, x1 = 0.0991	–	1020.57	4.311
298.15 K, x1 = 0.0996	1.31	–	–
298.15 K, x1 = 0.1495	0.767	–	–
298.15 K, x1 = 0.1994	0.53	–	–
298.15 K, x1 = 0.207	–	1021.21	7.645
298.15 K, x1 = 0.3005	–	1015.51	11.07
298.15 K, x1 = 0.3504	0.272	–	–
298.15 K, x1 = 0.3834	–	1011.35	12.14
298.15 K, x1 = 0.4978	–	1005.81	12.35
298.15 K, x1 = 0.4989	0.215	–	–
298.15 K, x1 = 0.6356	–	1001	11.28
298.15 K, x1 = 0.6512	0.195	–	–
298.15 K, x1 = 0.8019	–	997.07	9.561
298.15 K, x1 = 0.8447	0.205	–	–
298.15 K, x1 = 0.8984	–	994.72	8.186
298.15 K, x1 = 1	0.218	992.8	7.287
303.15 K, x1 = 0.0511	–	1016.67	2.148
303.15 K, x1 = 0.0991	–	1016.58	3.601
303.15 K, x1 = 0.207	–	1016.83	6.045
303.15 K, x1 = 0.3005	–	1011.06	8.853
303.15 K, x1 = 0.3834	–	1006.9	9.629
303.15 K, x1 = 0.4978	–	1001.35	9.809
303.15 K, x1 = 0.6356	–	996.54	9.023
303.15 K, x1 = 0.8019	–	992.72	7.768
303.15 K, x1 = 0.8984	–	990.26	6.72
303.15 K, x1 = 1	–	988.35	6.044
308.15 K, x1 = 0.0511	–	1013.28	1.854
308.15 K, x1 = 0.0991	–	1012.53	3.021
308.15 K, x1 = 0.207	–	1012.42	4.956
308.15 K, x1 = 0.3005	–	1006.59	7.201
308.15 K, x1 = 0.3834	–	1002.43	7.806
308.15 K, x1 = 0.4978	–	996.88	7.952
308.15 K, x1 = 0.6356	–	992.07	7.354
308.15 K, x1 = 0.8019	–	988.36	6.42
308.15 K, x1 = 0.8984	–	985.81	5.611
308.15 K, x1 = 1	–	983.9	5.097
313.15 K, x1 = 0.0511	–	1009.78	1.617
313.15 K, x1 = 0.0991	–	1008.4	2.592
313.15 K, x1 = 0.207	–	1007.97	4.126
313.15 K, x1 = 0.3005	–	1002.09	5.934
313.15 K, x1 = 0.3834	–	997.94	6.428
313.15 K, x1 = 0.4978	–	992.4	6.542
313.15 K, x1 = 0.6356	–	987.61	6.07
313.15 K, x1 = 0.8019	–	983.97	5.363
313.15 K, x1 = 0.8984	–	981.34	4.756
313.15 K, x1 = 1	–	979.46	4.358

[2]
Details	refractive index
x1 = 0.0511	1.3973
x1 = 0.0991	1.4278
x1 = 0.207	1.4589
x1 = 0.3005	1.4722
x1 = 0.3834	1.4787
x1 = 0.4978	1.485
x1 = 0.6356	1.4889
x1 = 0.8019	1.4922
x1 = 0.8984	1.4923
x1 = 1	1.4943
